{"source": "patent US6864056B1", "about": "(priority 2000, dated 2005)", "tested_on": "dAU6 NH3 oligonucleotide substrate", "type": "biochemical", "data": [{"substance": "gelonin", "values": [{"measurement": "level of activity (fluorescence normalized with negative control, FIG. 3)", "value": "highest level of activity"}]}]}
